Source: patent US7009050B2, “5-Substituted pyrimidine derivatives of conformationally locked nucleoside analogues” (The United States of America as represented by the …, priority 2000, dated 2006)
≈ marks a conversion by molar mass, not a printed value. Where two headings read alike, the source gives them in different places.

Columns and labels:
herpes viruses = test: antiherpes activity of methanocarbathymine conformers (test not specified); assay type: cell-based
TK − VZV YS/R strain = test: VZV plaque reduction, TK- VZV YS/R strain; assay type: cell-based, Varicella zoster virus; conditions: read-out: Antiviral activity (Plaque reduction) EC50, TK − VZV YS/R strain
Description: (§1) The virus plaque reduction assay proceeds generally as follows. […] The drug concentrations utilized are usually 200 down to 0.06 μg/mL. The virus to be used is diluted in MEM containing 10% FBS to a desired concentration which will give 20–30 plaques/well. The media are then aspirated from the wells, and 0.2 mL of virus is added to each well in duplicate with 0.2 mL of media being added to drug toxicity wells. The plates are then incubated for 1 hr with shaking every 15 min. After the incubation period, an equal amount of 1% agarose is added to an equal volume of each drug dilution. […] The drug agarose mixture is applied to each well in 2 mL volume, and the plates are incubated for 3 days, after which the cells are stained with a […] of neutral red. At the end of the 4–6 h incubation period, the stain is aspirated, and plaques are counted using a stereomicroscope at 10× magnification.

[1] = tested on: human foreskin fibroblast (HFF) cells
TK + VZV OKA strain = test: VZV plaque reduction, TK+ VZV OKA strain; assay type: cell-based, Varicella zoster virus; conditions: read-out: Antiviral activity (Plaque reduction) EC50, TK + VZV OKA strain
Description: as §1

HSV-1 [2] = test: cytopathogenic effect (CPE) inhibition assay, HSV-1 in HFF; conditions: for HSV-1 (HFF) CPE inhib. EC50: HFF cells, CPE inhibition
TK + VZV YS strain = test: VZV plaque reduction, TK+ VZV YS strain; assay type: cell-based, Varicella zoster virus; conditions: read-out: Antiviral activity (Plaque reduction) EC50, TK + VZV YS strain
HSV-2 [3] = test: cytopathogenic effect (CPE) inhibition assay, HSV-2 in HFF; conditions: HFF cells
TK − VZV 07/1 strain = test: VZV plaque reduction, TK- VZV 07/1 strain; assay type: cell-based, Varicella zoster virus; conditions: read-out: Antiviral activity (Plaque reduction) EC50, TK − VZV 07/1 strain
Description: as §1

Vaccinia [4] = conditions: HFF cells; plaque reduction
HSV-1 [5] = test: virus plaque reduction assay, HSV-1 in HFF
Cowpox [6] = conditions: HFF cells; plaque reduction
Vaccinia [7] = conditions: HFF cells; CPE inhibition
HSV-2 [8] = test: virus plaque reduction assay, HSV-2 in HFF
Cowpox [9] = conditions: HFF cells; CPE inhibition
[10] = cytotoxicity (cell morphology MCC, cell growth CC50), Table 3; conditions: for Cytotoxicity, Cell Morphology (MCC): minimum cytotoxic concentration causing microscopically detectable alteration of cell morphology; for CC50: read-out: Cytotoxicity CC50, cell growth
[11] = plaque reduction assay, more potent than acyclovir

Cc1cn([C@@]23C[C@H](O)[C@@H](CO)[C@@H]2C3)c(=O)[nH]c1=O
antiherpes activity (in words) (herpes viruses): inactive

O=c1[nH]c(=O)n([C@H]2C[C@H](O)[C@]3(CO)C[C@H]23)cc1/C=C/Br [(N)-MCBVDU (5)]
EC50 (TK − VZV YS/R strain): > 5000 nM | HSV-1 (HFF) CPE inhib. CC50 [1]: >100 µg/mL | HSV-2 (HFF) CPE inhib. CC50 [1]: >100 µg/mL | EC50 (TK + VZV OKA strain): 5 nM | HSV-1 (HFF) CPE inhib. EC50 (HSV-1 [2]): 2.2 µg/mL | EC50 (TK + VZV YS strain): 7 nM | HSV-2 (HFF) CPE inhib. EC50 (HSV-2 [3]): >100 µg/mL | SI (CC50/EC50), HSV-2 CPE inhib. (HSV-2 [3]): 0 | EC50 (TK − VZV 07/1 strain): > 5000 nM

O=c1[nH]c(=O)n(C2CC(O)C3(CO)CC23)cc1Br (centres unmarked) [(N)-MCdBrU (3)]
SI (CC50/EC50), Vaccinia Plaque red'n (Vaccinia [4]): 38.5 | Vaccinia (HFF) Plaque red'n EC50 (Vaccinia [4]): 2.6 µg/mL | EC50 (TK − VZV YS/R strain): 37000 nM | HSV-1 (HFF) plaque red'n EC50 (HSV-1 [5]; HFF cells, plaque reduction): 0.03 µg/mL | SI (CC50/EC50), HSV-1 plaque red'n (HSV-1 [5]; HFF cells, plaque reduction): 3333 | HSV-1 (HFF) CPE inhib. CC50 [1]: >100 µg/mL | HSV-1 (HFF) plaque red'n CC50 [1]: >100 µg/mL | HSV-2 (HFF) CPE inhib. CC50 [1]: >100 µg/mL | HSV-2 (HFF) plaque red'n CC50 [1]: >100 µg/mL | Cowpox (HFF) CPE inhib. CC50 ([1]; HFF cells, column of Cowpox CPE inhibition): >100 µg/mL | Cowpox (HFF) Plaque red'n CC50 ([1]; HFF cells, column of Cowpox plaque reduction): >100 µg/mL | Vaccinia (HFF) CPE inhib. CC50 ([1]; HFF cells, column of Vaccinia CPE inhibition): >100 µg/mL | Vaccinia (HFF) Plaque red'n CC50 ([1]; HFF cells, column of Vaccinia plaque reduction): >100 µg/mL | Cowpox (HFF) Plaque red'n EC50 (Cowpox [6]): 3.4 µg/mL | SI (CC50/EC50), Cowpox Plaque red'n (Cowpox [6]): 29.4 | EC50 (TK + VZV OKA strain): 890 nM | SI (CC50/EC50), Vaccinia CPE inhib. (Vaccinia [7]): >156 | Vaccinia (HFF) CPE inhib. EC50 (Vaccinia [7]): 0.64 µg/mL | HSV-1 (HFF) CPE inhib. EC50 (HSV-1 [2]): 0.39 µg/mL | EC50 (TK + VZV YS strain): 30 nM | HSV-2 (HFF) plaque red'n EC50 (HSV-2 [8]; HFF cells, plaque reduction): 0.12 µg/mL | SI (CC50/EC50), HSV-2 plaque red'n (HSV-2 [8]; HFF cells, plaque reduction): 833 | HSV-2 (HFF) CPE inhib. EC50 (HSV-2 [3]): 0.70 µg/mL | SI (CC50/EC50), HSV-2 CPE inhib. (HSV-2 [3]): >142 | EC50 (TK − VZV 07/1 strain): 107000 nM | Cowpox (HFF) CPE inhib. EC50 (Cowpox [9]): 11.5 µg/mL | SI (CC50/EC50), Cowpox CPE inhib. (Cowpox [9]): 8.7

O=c1[nH]c(=O)n([C@H]2C[C@H](O)[C@]3(CO)C[C@H]23)cc1I [(N)-MCdIU (4)]
EC50 (TK − VZV YS/R strain): 3000 nM | HSV-1 (HFF) CPE inhib. CC50 ([1]; HFF cells, column of HSV-1 CPE inhibition): >100 µg/mL | HSV-2 (HFF) CPE inhib. CC50 ([1]; HFF cells, column of HSV-2 CPE inhibition): >100 µg/mL | EC50 (TK + VZV OKA strain): 160 nM | Cytotoxicity, Cell Morphology (MCC) [10]: >5 μM | CC50 [10]: > 200000 nM | HSV-1 (HFF) CPE inhib. EC50 (HSV-1 [2]): >100 µg/mL | HSV-2 (HFF) CPE inhib. EC50 (HSV-2 [3]): 3.3 µg/mL | SI (CC50/EC50), HSV-2 CPE inhib. (HSV-2 [3]): 30.3 | EC50 (TK − VZV 07/1 strain): > 5000 nM

Cc1cn([C@H]2C[C@H](O)[C@]3(CO)C[C@H]23)c(=O)[nH]c1=O [(North)-methanocarbathymine, reference compound]
potency relative to acyclovir against HSV-1 (HSV-1 [5]; [11]): 30 times | potency relative to acyclovir against HSV-2 (HSV-2 [8]; [11]): 30 times

Nc1nc2c(ncn2COCCO)c(=O)[nH]1 [ACV, acyclovir, reference compound]
EC50 (HSV-1 [2]; Human alphaherpesvirus 1, HFF, read-out: HSV-1 (HFF) CPE inhib. EC50): 0.5 µg/mL (≈ 2.22 µM)

O=c1[nH]c(=O)n([C@H]2C[C@H](O)[C@@H](CO)O2)cc1/C=C/Br [BVDU, reference compound]
EC50 (TK − VZV YS/R strain): > 150000 nM | EC50 (TK + VZV OKA strain): 5 nM | Cytotoxicity, Cell Morphology (MCC) [10]: >150 μM | CC50 [10]: > 400000 nM | EC50 (TK + VZV YS strain): 8 nM | EC50 (TK − VZV 07/1 strain): > 150000 nM
